Assay results reported in ChEMBL document CHEMBL5137098, “Discovery of Substituted Di(pyridin-2-yl)-1,2,4-thiadiazol-5-amines as Novel Macrofilaricidal Compounds for the Treatment of Human Filarial Infections” (J Med Chem, 2022).

Columns and labels:
[1] = Metabolic stability in human liver S9 fraction assessed as compound remaining at 3 uM measured at 60 mins by LC-MS/MS analysis; format: ADME, subcellular; conditions: read-out: Stability
[2] = Metabolic stability in rat liver S9 fraction assessed as compound remaining at 3 uM measured at 60 mins by LC-MS/MS analysis; format: ADME, subcellular; conditions: read-out: Stability
TK6 = assay: Cytotoxicity in human TK6 cells in presence of Aroclor 1254-induced rat liver S9 fraction by micronucleus test; format: toxicity, cell-based
[3] = Mutagenicity in Salmonella typhimurium TA97 in presence of liver S9 fraction by AMES test; format: toxicity, subcellular; conditions: salmonella enterica subsp. enterica serovar typhimurium
[4] = Mutagenicity in Salmonella typhimurium TA97 in absence of liver S9 fraction by AMES test; format: toxicity; conditions: salmonella enterica subsp. enterica serovar typhimurium
Litomosoides sigmodontis = assay: Antiparasitic activity against Litomosoides sigmodontis infected in Meriones assessed as reduction in worm burden at 15 mg/kg, sc BID administered for 7 days; format: functional; parameters: scale not given: the % may be the effect or the level left; conditions: time 7 day
[5] = Mutagenicity in Salmonella typhimurium TA98 in absence of liver S9 fraction by AMES test; format: toxicity; conditions: salmonella enterica subsp. enterica serovar typhimurium
[6] = Mutagenicity in Salmonella typhimurium TA100 in absence of liver S9 fraction by AMES test; format: toxicity; conditions: salmonella enterica subsp. enterica serovar typhimurium
[7] = Mutagenicity in Salmonella typhimurium TA98 in presence of liver S9 fraction by AMES test; format: toxicity, subcellular; conditions: salmonella enterica subsp. enterica serovar typhimurium
[8] = Mutagenicity in Escherichia coli WP2 uvrA in absence of liver S9 fraction by AMES test; format: toxicity
[9] = Mutagenicity in Escherichia coli WP2 uvrA in presence of liver S9 fraction by AMES test; format: toxicity, subcellular
[10] = Mutagenicity in Salmonella typhimurium TA1535 in presence of liver S9 fraction by AMES test; format: toxicity, subcellular; conditions: salmonella enterica subsp. enterica serovar typhimurium
[11] = Mutagenicity in Salmonella typhimurium TA1535 in absence of liver S9 fraction by AMES test; format: toxicity; conditions: salmonella enterica subsp. enterica serovar typhimurium
[12] = Mutagenicity in Salmonella typhimurium TA100 in presence of liver S9 fraction by AMES test; format: toxicity, subcellular; conditions: salmonella enterica subsp. enterica serovar typhimurium

## Cc1nccnc1Nc1nc(-c2ccc(OC(C)C)cn2)ns1
[1]
  remaining at 1 h, 3 µM: 94%
[2]
  remaining at 1 h, 3 µM: 100%
TK6
  Activity: Non-Toxic

## CC(=O)N(C)c1cccnc1Nc1nc(-c2ccc(OC(C)C)cn2)ns1
[3]
  Activity: Non-Toxic
[4]
  Activity: Non-Toxic
Litomosoides sigmodontis
  Activity: 58.9%
[5]
  Activity: Non-Toxic
[6]
  Activity: Non-Toxic
[7]
  Activity: Non-Toxic
[8]
  Activity: Non-Toxic
[9]
  Activity: Non-Toxic
[10]
  Activity: Non-Toxic
[11]
  Activity: Non-Toxic
[12]
  Activity: Non-Toxic
